#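 Grown in 96-well plates, cells were treated for 48 hours with each compound at five concentrations. Insufficient inhibition: endpoint recorded as highest concentration tested. GI50 marks 50% less growth.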 Activity calls are given as the source filed them. Cut-off read from the data, not from the text of the source: active = GI50 up to about 1.1 µM and inactive = higher.
# Experiments:
# Experiment in all cases: growth of human tumour cells (NCI), 48 h
# [1] = system: NCI-H23
# [2] = system: NCI-H460
# [3] = system: SNB-75
# [4] = system: OVCAR-4
# [5] = system: SNB-19
# [6] = system: SK-OV-3
# [7] = system: Hs-578T
# [8] = system: OVCAR-8
# [9] = system: SF-295
# [10] = system: SR
# [11] = system: OVCAR-5
# [12] = system: CCRF-CEM
# [13] = system: DU-145
# [14] = system: MDA-MB-231
# [15] = system: TK-10
# [16] = system: CAKI-1
# [17] = system: OVCAR-3
# [18] = system: HT-29
# [19] = system: HCT-15
# [20] = system: HCC 2998
# [21] = system: SK-MEL-28
# [22] = system: MDA-N
# [23] = system: SF-268
# [24] = system: UO-31
# [25] = system: UACC-62
# [26] = system: EKVX
# [27] = system: K562
# [28] = system: NCI-H226
# [29] = system: PC-3
# [30] = system: U-251
# [31] = system: HCT-116
# [32] = system: MCF7
# [33] = system: ACHN
# [34] = system: T47D
# [35] = system: KM12
# [36] = system: UACC-257
# [37] = system: IGROV-1
# [38] = system: COLO 205
# [39] = system: SK-MEL-2
# [40] = system: HOP-62
# [41] = system: RPMI-8226
# [42] = system: Malme-3M
# [43] = system: NCI-H522
# [44] = system: HOP-92
# [45] = system: MOLT-4
# [46] = system: SF-539
# [47] = system: HL-60
# [48] = system: SK-MEL-5
# [49] = system: M14
# [50] = system: LOX IMVI
# [51] = system: SW-620
# [52] = system: MDA-MB-435
# [53] = system: A549
# [54] = system: A498
# [55] = system: SN12C
# [56] = system: RXF 393
# [57] = system: 786-0
# [58] = system: NCI/ADR-RES
smiles,measurement,setting,value
O=C1OC(c2ccccc2Br)=N/C1=C/c1ccccc1,GI50,[1],32.8 µM (inactive)
same,GI50,[2],42.5 µM (inactive)
same,GI50,[3],53.5 µM (inactive)
same,GI50,[4],25.4 µM (inactive)
same,GI50,[5],24.9 µM (inactive)
same,GI50,[6],63.7 µM (inactive)
same,GI50,[7],31.3 µM (inactive)
same,GI50,[8],21.6 µM (inactive)
same,GI50,[9],34.1 µM (inactive)
same,GI50,[10],27 µM (inactive)
same,GI50,[11],40.2 µM (inactive)
same,GI50,[12],35 µM (inactive)
same,GI50,[13],> 100 µM (inactive)
same,GI50,[14],40.7 µM (inactive)
same,GI50,[15],32.8 µM (inactive)
same,GI50,[16],35.2 µM (inactive)
same,GI50,[17],14.1 µM (inactive)
same,GI50,[18],32.1 µM (inactive)
same,GI50,[19],29.9 µM
same,GI50,[20],19.1 µM (inactive)
same,GI50,[21],41.8 µM (inactive)
same,GI50,[22],25.4 µM (inactive)
same,GI50,[23],31.6 µM (inactive)
same,GI50,[24],45.9 µM (inactive)
same,GI50,[25],37.1 µM (inactive)
same,GI50,[26],> 100 µM (inactive)
same,GI50,[27],63 µM (inactive)
same,GI50,[28],18.8 µM (inactive)
same,GI50,[29],> 100 µM (inactive)
same,GI50,[30],26.6 µM (inactive)
same,GI50,[31],37.2 µM (inactive)
same,GI50,[32],57.1 µM (inactive)
same,GI50,[33],27.5 µM (inactive)
same,GI50,[34],> 100 µM (inactive)
same,GI50,[35],19 µM (inactive)
same,GI50,[36],> 100 µM (inactive)
same,GI50,[37],39.4 µM (inactive)
same,GI50,[38],> 10 µM (inactive)
same,GI50,[39],18.8 µM (inactive)
same,GI50,[40],21.5 µM (inactive)
same,GI50,[41],33.1 µM (inactive)
same,GI50,[42],19.6 µM (inactive)
same,GI50,[43],26 µM (inactive)
same,GI50,[44],> 10 µM (inactive)
same,GI50,[45],48.8 µM (inactive)
same,GI50,[46],18.5 µM (inactive)
same,GI50,[47],39 µM (inactive)
same,GI50,[48],35.2 µM (inactive)
same,GI50,[49],18.6 µM (inactive)
same,GI50,[50],21.7 µM (inactive)
same,GI50,[51],42.9 µM (inactive)
same,GI50,[52],29.2 µM (inactive)
same,GI50,[53],29.6 µM (inactive)
same,GI50,[54],> 100 µM (inactive)
[N-]=[N+]=C1N=CN=C1c1nc[nH]n1,GI50,[1],34.1 µM (inactive)
same,GI50,[3],32.3 µM (inactive)
same,GI50,[4],31.8 µM (inactive)
same,GI50,[5],80.2 µM (inactive)
same,GI50,[6],> 100 µM (inactive)
same,GI50,[8],21.4 µM (inactive)
same,GI50,[55],20.9 µM (inactive)
same,GI50,[9],82.4 µM (inactive)
same,GI50,[56],48.8 µM (inactive)
same,GI50,[57],21.9 µM (inactive)
same,GI50,[12],3.98 µM (inactive)
same,GI50,[13],48.5 µM (inactive)
same,GI50,[14],29 µM (inactive)
same,GI50,[15],51.2 µM (inactive)
same,GI50,[16],6.31 µM (inactive)
same,GI50,[17],32.2 µM (inactive)
same,GI50,[18],> 100 µM (inactive)
same,GI50,[19],63 µM
same,GI50,[20],63 µM (inactive)
same,GI50,[21],76.7 µM (inactive)
same,GI50,[22],41.9 µM (inactive)
same,GI50,[24],19.6 µM (inactive)
same,GI50,[25],16.6 µM (inactive)
same,GI50,[26],40 µM (inactive)
same,GI50,[27],14.9 µM (inactive)
same,GI50,[28],> 100 µM (inactive)
same,GI50,[29],> 100 µM (inactive)
same,GI50,[30],27 µM (inactive)
same,GI50,[58],22.1 µM (inactive)
same,GI50,[31],25 µM (inactive)
same,GI50,[32],81.1 µM (inactive)
same,GI50,[33],39 µM (inactive)
same,GI50,[34],17.4 µM (inactive)
same,GI50,[35],93.5 µM (inactive)
same,GI50,[36],57 µM (inactive)
same,GI50,[37],29 µM (inactive)
same,GI50,[38],45.1 µM (inactive)
same,GI50,[39],94.8 µM (inactive)
same,GI50,[40],35.7 µM (inactive)
same,GI50,[41],10.8 µM (inactive)
same,GI50,[42],10.9 µM (inactive)
same,GI50,[43],30.7 µM (inactive)
same,GI50,[44],12.4 µM (inactive)
same,GI50,[45],6.27 µM (inactive)
same,GI50,[46],15.3 µM (inactive)
same,GI50,[47],5.83 µM (inactive)
same,GI50,[48],57.8 µM (inactive)
same,GI50,[49],40.6 µM (inactive)
same,GI50,[50],12 µM (inactive)
same,GI50,[51],22.1 µM (inactive)
same,GI50,[52],31.3 µM (inactive)
same,GI50,[53],> 100 µM (inactive)
same,GI50,[54],20.2 µM (inactive)

# Reference: ChEMBL document CHEMBL1201862, “PubChem BioAssay data set” (2004)
